Laboratory results reported in patent US5635477A, “Cyclic compounds useful as inhibitors of platelet glycoprotein IIB/IIIA” (The DuPont Merck Pharmaceutical Company, priority 1995, dated 1997).
Starred links: 1 amine or outer side, 2 acyl side, 3 side chain; linkers in the order of their positions; H or OH if unused. Non-standard residues stand in square brackets, D forms with d. Residues, ends and D or L forms follow the SMILES beside them. NMePhe(4-CH2NH2) = CN[C@@H](Cc1ccc(CN)cc1)C(=O)O; X5 = O=C(c1ccc(I)c(CN[*:1])c1)[*:2]; NMeOrn(Me) = CNCCC[C@H](NC)C(=O)O; NMeR = CN[C@@H](CCCNC(=N)N)C(=O)O; dPhg = N[C@@H](C(=O)O)c1ccccc1; dNle = CCCC[C@@H](N)C(=O)O; 3Amb = NCc1cccc(C(=O)O)c1; dAbu = CC[C@@H](N)C(=O)O; βAla = NCCC(=O)O; Sar = CNCC(=O)O

Target: agonist-induced platelet aggregation (Homo sapiens, UniProt P05106+P08514)
Sequence (P08514 32-1039): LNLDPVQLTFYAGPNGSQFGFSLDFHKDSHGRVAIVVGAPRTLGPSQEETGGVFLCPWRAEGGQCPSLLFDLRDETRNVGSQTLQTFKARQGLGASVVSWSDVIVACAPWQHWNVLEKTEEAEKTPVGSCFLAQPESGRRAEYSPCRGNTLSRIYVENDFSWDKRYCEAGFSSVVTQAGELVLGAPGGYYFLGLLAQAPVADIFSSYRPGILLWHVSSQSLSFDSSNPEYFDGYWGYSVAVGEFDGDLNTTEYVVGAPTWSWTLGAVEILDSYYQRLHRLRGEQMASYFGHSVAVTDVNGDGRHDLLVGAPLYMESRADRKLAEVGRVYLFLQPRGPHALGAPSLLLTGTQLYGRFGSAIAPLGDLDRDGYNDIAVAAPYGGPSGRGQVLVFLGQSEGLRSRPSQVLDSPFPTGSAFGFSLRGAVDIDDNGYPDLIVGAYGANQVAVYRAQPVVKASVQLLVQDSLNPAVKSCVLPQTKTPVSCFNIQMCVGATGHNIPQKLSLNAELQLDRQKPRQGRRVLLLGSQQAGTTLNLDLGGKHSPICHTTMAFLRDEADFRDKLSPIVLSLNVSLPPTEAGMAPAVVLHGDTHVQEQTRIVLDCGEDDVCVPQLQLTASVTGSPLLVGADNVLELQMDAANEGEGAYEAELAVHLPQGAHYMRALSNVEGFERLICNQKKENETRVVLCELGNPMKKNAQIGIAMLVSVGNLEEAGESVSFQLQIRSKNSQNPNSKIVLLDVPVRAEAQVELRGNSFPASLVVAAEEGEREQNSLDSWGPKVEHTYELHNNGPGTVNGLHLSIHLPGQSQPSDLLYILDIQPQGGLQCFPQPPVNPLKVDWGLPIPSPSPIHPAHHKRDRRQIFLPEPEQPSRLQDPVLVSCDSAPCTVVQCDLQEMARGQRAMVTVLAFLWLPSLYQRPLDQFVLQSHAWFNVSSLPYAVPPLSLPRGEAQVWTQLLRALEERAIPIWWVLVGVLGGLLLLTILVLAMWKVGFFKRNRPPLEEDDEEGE
Sequence (P05106 27-788): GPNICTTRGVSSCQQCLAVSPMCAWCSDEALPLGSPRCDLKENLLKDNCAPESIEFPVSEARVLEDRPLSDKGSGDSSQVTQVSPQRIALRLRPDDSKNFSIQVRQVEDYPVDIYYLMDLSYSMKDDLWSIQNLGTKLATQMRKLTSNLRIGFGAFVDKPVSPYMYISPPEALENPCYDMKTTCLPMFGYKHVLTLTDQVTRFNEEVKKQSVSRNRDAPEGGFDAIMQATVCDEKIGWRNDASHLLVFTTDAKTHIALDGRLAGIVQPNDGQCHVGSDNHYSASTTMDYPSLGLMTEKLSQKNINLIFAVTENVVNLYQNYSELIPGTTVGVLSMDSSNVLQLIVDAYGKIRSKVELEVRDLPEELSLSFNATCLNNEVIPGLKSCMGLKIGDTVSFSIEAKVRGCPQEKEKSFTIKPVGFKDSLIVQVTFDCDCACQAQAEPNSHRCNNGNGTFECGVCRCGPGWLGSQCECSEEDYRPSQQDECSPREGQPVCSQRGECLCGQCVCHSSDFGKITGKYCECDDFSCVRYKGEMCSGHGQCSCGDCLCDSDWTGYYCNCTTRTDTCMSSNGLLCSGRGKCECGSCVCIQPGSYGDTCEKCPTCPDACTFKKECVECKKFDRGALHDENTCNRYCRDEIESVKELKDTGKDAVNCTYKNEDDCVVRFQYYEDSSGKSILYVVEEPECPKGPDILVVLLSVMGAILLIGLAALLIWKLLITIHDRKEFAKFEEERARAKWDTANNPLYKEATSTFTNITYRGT
Experiment: Platelet Aggregation Assay
Format: cell-based
Conditions: human PRP; agonist-induced aggregation
Protocol: Blood was collected into 10 ml citrated Vacutainer tubes.

| Structure (SMILES) | IC50 |
| --- | --- |
| CC(C)[C@H]1NC(=O)c2cccc(c2)CNC(=O)C(C)(CC(=O)O)NC(=O)CNC(=O)[C@H](CCCNC(=N)N)N(C)C1=O (single isomer, unassigned) [Example 63, cyclo-(D-Val-NMeArg-Gly-α-MeAsp-Mamb)] | 1000 to 10000 nM |
| CC(C)[C@H]1NC(=O)c2cccc(c2)CNC(=O)C(C)(CC(=O)O)NC(=O)CNC(=O)[C@H](CCCNC(=N)N)N(C)C1=O (single isomer, unassigned) [Example 63a, cyclo-(D-Val-NMeArg-Gly-α-MeAsp-Mamb)] | 10000 to 100000 nM |
| CC(C)[C@H]1NC(=O)c2ccc3c(c2)C(CCC3)NC(=O)[C@H](CC(=O)O)NC(=O)CNC(=O)[C@H](CCCNC(=N)N)N(C)C1=O (single isomer, unassigned) [Example 89a, cyclo-(D-Val-NMeArg-Gly-Asp-aminotetralincarboxylic acid)] | < 1000 nM |
| CC(C)[C@H]1NC(=O)c2ccc3c(c2)C(CCC3)NC(=O)[C@H](CC(=O)O)NC(=O)CNC(=O)[C@H](CCCNC(=N)N)N(C)C1=O (single isomer, unassigned) [Example 89b, cyclo-(D-Val-NMeArg-Gly-Asp-aminotetralincarboxylic acid)] | < 1000 nM |
| CN1C(=O)CNC(=O)c2cccc(c2)CNC(=O)[C@H](CC(=O)O)NC(=O)CNC(=O)[C@@H]1CCCNC(=N)N [Example 1, cyclo-(Gly-NMeArg-Gly-Asp-Mamb)] (cyclo([NMeR]GD[3Amb]G)) | < 1000 nM |
| C[C@H]1NC(=O)c2cccc(c2)CNC(=O)[C@H](CC(=O)O)NC(=O)CNC(=O)[C@H](CCCNC(=N)N)N(C)C1=O [Example 2, cyclo-(D-Ala-NMeArg-Gly-Asp-Mamb)] (cyclo([NMeR]GD[3Amb][dA])) | < 1000 nM |
| CC(C)[C@H]1NC(=O)c2cccc(c2)CNC(=O)[C@H](CC(=O)O)NC(=O)CNC(=O)[C@@H](CCCNC(=N)N)N(C)C1=O [Example 4b, cyclo-(D-Val-D-NMeArg-Gly-Asp-Mamb)] | 1000 to 10000 nM |
| CC(C)C[C@H]1NC(=O)c2cccc(c2)CNC(=O)[C@H](CC(=O)O)NC(=O)CNC(=O)[C@H](CCCNC(=N)N)N(C)C1=O [Example 5, cyclo-(D-Leu-NMeArg-Gly-Asp-Mamb)] (cyclo([NMeR]GD[3Amb][dL])) | < 1000 nM |
| CCCC[C@H]1NC(=O)c2cccc(c2)CNC(=O)[C@H](CC(=O)O)NC(=O)CNC(=O)[C@H](CCCNC(=N)N)N(C)C1=O [Example 7, cyclo-(D-Nle-NMeArg-Gly-Asp-Mamb)] (cyclo([NMeR]GD[3Amb][dNle])) | < 1000 nM |
| CN1C(=O)[C@@H](c2ccccc2)NC(=O)c2cccc(c2)CNC(=O)[C@H](CC(=O)O)NC(=O)CNC(=O)[C@@H]1CCCNC(=N)N [Example 11, cyclo-(D-Phg-NMeArg-Gly-Asp-Mamb)] (cyclo([NMeR]GD[3Amb][dPhg])) | < 1000 nM |
| CN1C(=O)[C@@H](Cc2ccccc2)NC(=O)c2cccc(c2)CNC(=O)[C@H](CC(=O)O)NC(=O)CNC(=O)[C@@H]1CCCNC(=N)N [Example 12, cyclo-(D-Phe-NMeArg-Gly-Asp-Mamb)] (cyclo([NMeR]GD[3Amb][dF])) | < 1000 nM |
| CN1C(=O)[C@@H](CCCCN)NC(=O)c2cccc(c2)CNC(=O)[C@H](CC(=O)O)NC(=O)CNC(=O)[C@@H]1CCCNC(=N)N [Example 13f, cyclo-(D-Lys-NMeArg-Gly-Asp-Mamb)] (cyclo([NMeR]GD[3Amb][dK])) | < 1000 nM |
| CC[C@@H](C)[C@H]1NC(=O)c2cccc(c2)CNC(=O)[C@H](CC(=O)O)NC(=O)CNC(=O)[C@H](CCCNC(=N)N)N(C)C1=O [Example 13r, cyclo-(D-Ile-NMeArg-Gly-Asp-Mamb)] (cyclo([NMeR]GD[3Amb][dI])) | < 1000 nM |
| CN1CC(=O)N(C)[C@@H](CCCNC(=N)N)C(=O)NCC(=O)N[C@@H](CC(=O)O)C(=O)NCc2cccc(c2)C1=O [Example 18, cyclo-(NMeGly-NMeArg-Gly-Asp-Mamb)] (cyclo([NMeR]GD[3Amb][Sar])) | < 1000 nM |
| CN1C(=O)[C@H]2CCCN2C(=O)c2cccc(c2)CNC(=O)[C@H](CC(=O)O)NC(=O)CNC(=O)[C@@H]1CCCNC(=N)N [Example 25, cyclo-(D-Pro-NMeArg-Gly-Asp-Mamb)] (cyclo([NMeR]GD[3Amb][dP])) | < 1000 nM |
| CN1C(=O)CCNC(=O)c2cccc(c2)CNC(=O)[C@H](CC(=O)O)NC(=O)CNC(=O)[C@@H]1CCCNC(=N)N [Example 28c, cyclo-(b-Ala-NMeArg-Gly-Asp-Mamb)] (cyclo([NMeR]GD[3Amb][βAla])) | < 1000 nM |
| CN1C(=O)[C@@H](Cc2ccc(O)cc2)NC(=O)c2cccc(c2)CNC(=O)[C@H](CC(=O)O)NC(=O)CNC(=O)[C@@H]1CCCNC(=N)N [Example 28f, cyclo-(D-Tyr-NMeArg-Gly-Asp-Mamb)] (cyclo([NMeR]GD[3Amb][dY])) | < 1000 nM |
| N=C(N)NCCC[C@@H]1NC(=O)CNC(=O)c2cccc(c2)CNC(=O)[C@H](CC(=O)O)NC(=O)CNC1=O [Example 29, cyclo-(Gly-Arg-Gly-Asp-Mamb)] (cyclo(RGD[3Amb]G)) | 1000 to 10000 nM |
| C[C@H]1NC(=O)c2cccc(c2)CNC(=O)[C@H](CC(=O)O)NC(=O)CNC(=O)[C@H](CCCNC(=N)N)NC1=O [Example 30, cyclo-(D-Ala-Arg-Gly-Asp-Mamb)] (cyclo(RGD[3Amb][dA])) | 1000 to 10000 nM |

| Structure (SMILES) | IC50 |
| --- | --- |
| CC(C)[C@H]1NC(=O)c2cccc(c2)CNC(=O)[C@H](CC(=O)O)NC(=O)CNC(=O)[C@H](CCCNC(=N)N)NC1=O [Example 32, cyclo-(D-Val-Arg-Gly-Asp-Mamb)] | 1000 to 10000 nM |
| CC(C)C[C@H]1NC(=O)c2cccc(c2)CNC(=O)[C@H](CC(=O)O)NC(=O)CNC(=O)[C@H](CCCNC(=N)N)NC1=O [Example 33, cyclo-(D-Leu-Arg-Gly-Asp-Mamb)] (cyclo(RGD[3Amb][dL])) | 1000 to 10000 nM |
| CC[C@H]1NC(=O)c2cccc(c2)CNC(=O)[C@H](CC(=O)O)NC(=O)CNC(=O)[C@H](CCCNC(=N)N)NC1=O [Example 34, cyclo-(D-Abu-Arg-Gly-Asp-Mamb)] (cyclo(RGD[3Amb][dAbu])) | 1000 to 10000 nM |
| N=C(N)NCCC[C@@H]1NC(=O)[C@@H](CO)NC(=O)c2cccc(c2)CNC(=O)[C@H](CC(=O)O)NC(=O)CNC1=O [Example 35, cyclo-(D-Ser-Arg-Gly-Asp-Mamb)] (cyclo(RGD[3Amb][dS])) | 1000 to 10000 nM |
| N=C(N)NCCC[C@@H]1NC(=O)[C@@H](Cc2ccccc2)NC(=O)c2cccc(c2)CNC(=O)[C@H](CC(=O)O)NC(=O)CNC1=O [Example 36, cyclo-(D-Phe-Arg-Gly-Asp-Mamb)] (cyclo(RGD[3Amb][dF])) | 10000 to 100000 nM |
| N=C(N)NCCC[C@@H]1NC(=O)[C@H](Cc2ccccc2)NC(=O)c2cccc(c2)CNC(=O)[C@H](CC(=O)O)NC(=O)CNC1=O [Example 37, cyclo-(Phe-Arg-Gly-Asp-Mamb)] (cyclo(RGD[3Amb]F)) | 10000 to 100000 nM |
| CC(C)[C@H]1NC(=O)c2cccc(c2)CNC(=O)[C@H](CC(=O)O)NC(=O)CNC(=O)[C@H](Cc2ccc(CN)cc2)N(C)C1=O [Example 40, cyclo-(D-Val-NMeAmf-Gly-Asp-Mamb)] (cyclo([dV][NMePhe(4-CH2NH2)]GD[3Amb])) | < 1000 nM |
| CC(C)[C@H]1NC(=O)c2cccc(c2)CNC(=O)[C@H](CC(=O)O)NC(=O)CCNC(=O)[C@H](CCCNC(=N)N)N(C)C1=O [Example 54, cyclo-(D-Val-NMeArg-b-Ala-Asp-Mamb)] (cyclo([3Amb][dV][NMeR][βAla]D)) | 1000 to 10000 nM |
| CC(C)[C@H]1NC(=O)c2cccc(c2)CNC(=O)[C@H](CC(=O)O)NC(=O)[C@H](C)NC(=O)[C@H](CCCNC(=N)N)N(C)C1=O [Example 58c, cyclo-(D-Val-NMeArg-L-Ala-Asp-Mamb)] (cyclo([3Amb][dV][NMeR]AD)) | 10000 to 100000 nM |
| CC(C)[C@H]1NC(=O)c2cccc(c2)CNC(=O)[C@H](CC(=O)O)N(C)C(=O)CNC(=O)[C@H](CCCNC(=N)N)N(C)C1=O [Example 64b, cyclo-(D-Val-NMeArg-Gly-NMeAsp-Mamb)] | 1000 to 10000 nM |
| CC(C)[C@H]1NC(=O)c2cccc(c2)CNC(=O)[C@@H](CC(=O)O)NC(=O)CNC(=O)[C@H](CCCNC(=N)N)N(C)C1=O [Example 64c, cyclo-(D-Val-NMeArg-Gly-D-Asp-Mamb)] | 1000 to 10000 nM |
| CC(C)[C@H]1NC(=O)c2ccc3cccc(c3c2)CNC(=O)[C@H](CC(=O)O)NC(=O)CNC(=O)[C@H](CCCNC(=N)N)N(C)C1=O [Example 89c, cyclo-(D-Val-NMeArg-Gly-Asp-aminomethylnaphthoic acid)] | 1000 to 10000 nM |
| CC[C@H]1NC(=O)c2ccc(I)c(c2)CNC(=O)[C@H](CC(=O)O)NC(=O)CNC(=O)[C@H](CCCNC(=N)N)N(C)C1=O [Example 89d, cyclo-(D-Abu-NMeArg-Gly-Asp-iodo-Mamb)] (cyclo([NMeR]GD[X5][dAbu])) | < 1000 nM |
| CC[C@H]1NC(=O)c2cccc(c2)CNC(=O)[C@H](CC(=O)O)NC(=O)CNC(=O)[C@H](CCCNC)N(C)C1=O [Example 89e, cyclo-(D-Abu-di-NMeOrn-Gly-Asp-Mamb)] (cyclo([dAbu][NMeOrn(Me)]GD[3Amb])) | 1000 to 10000 nM |
| CC(C)[C@H]1NC(=O)c2ccccc2CNC(=O)[C@H](CC(=O)O)NC(=O)CNC(=O)[C@H](CCCNC(=N)N)N(C)C1=O [Example 91, cyclo-(D-Val-NMeArg-Gly-Asp-2-aminomethylbenzoic acid)] | < 1000 nM |
| CC(C)[C@H]1NC(=O)Cc2cccc(c2)NC(=O)[C@H](CC(=O)O)NC(=O)CNC(=O)[C@H](CCCNC(=N)N)N(C)C1=O [Example 92, cyclo-(D-Val-NMeArg-Gly-Asp-3-aminophenylacetic acid)] | < 1000 nM |
| CC(C)[C@H]1NC(=O)c2ccc(Cl)c(c2)CNC(=O)[C@H](CC(=O)O)NC(=O)CNC(=O)[C@H](CCCNC(=N)N)N(C)C1=O [Example 93, cyclo-(D-Val-NMeArg-Gly-Asp-3-aminomethyl-4-chlorobenzoic acid)] | < 1000 nM |
| CC(C)[C@H]1NC(=O)c2ccc(I)c(c2)CNC(=O)[C@H](CC(=O)O)NC(=O)CNC(=O)[C@H](CCCNC(=N)N)N(C)C1=O [Example 94, cyclo-(D-Val-NMeArg-Gly-Asp-iodo-Mamb)] | < 1000 nM |
| CC(C)[C@H]1NC(=O)c2cc(ccc2Cl)CNC(=O)[C@H](CC(=O)O)NC(=O)CNC(=O)[C@H](CCCNC(=N)N)N(C)C1=O [Example 97, cyclo-(D-Val-NMeArg-Gly-Asp-3-aminomethyl-6-chlorobenzoic acid)] | < 1000 nM |
